# Assay results as given in US20190256474A1, “N-PHENYL-2-(3-PHENYL-6-OXO-1,6-DIHYDROPYRIDAZIN-1-YL)ACETAMIDE DERIVATIVES FOR TREATING CYSTIC FIBROSIS” (Proteostasis Therapeutics, Inc., priority 2016, published 2019).
# Target: T1, ΔF508-CFTR (Homo sapiens, UniProt P13569, DEL508-508)
# T1 construct: Primary lung epithelial cells homozygous for the Cystic Fibrosis-causing ΔF508 mutation were differentiated; endogenous in cells; host or cells: primary human bronchial epithelial cells (hBE), ΔF508/ΔF508
# T1 sequence (P13569 with tags, fused parts or gaps DEL508-508): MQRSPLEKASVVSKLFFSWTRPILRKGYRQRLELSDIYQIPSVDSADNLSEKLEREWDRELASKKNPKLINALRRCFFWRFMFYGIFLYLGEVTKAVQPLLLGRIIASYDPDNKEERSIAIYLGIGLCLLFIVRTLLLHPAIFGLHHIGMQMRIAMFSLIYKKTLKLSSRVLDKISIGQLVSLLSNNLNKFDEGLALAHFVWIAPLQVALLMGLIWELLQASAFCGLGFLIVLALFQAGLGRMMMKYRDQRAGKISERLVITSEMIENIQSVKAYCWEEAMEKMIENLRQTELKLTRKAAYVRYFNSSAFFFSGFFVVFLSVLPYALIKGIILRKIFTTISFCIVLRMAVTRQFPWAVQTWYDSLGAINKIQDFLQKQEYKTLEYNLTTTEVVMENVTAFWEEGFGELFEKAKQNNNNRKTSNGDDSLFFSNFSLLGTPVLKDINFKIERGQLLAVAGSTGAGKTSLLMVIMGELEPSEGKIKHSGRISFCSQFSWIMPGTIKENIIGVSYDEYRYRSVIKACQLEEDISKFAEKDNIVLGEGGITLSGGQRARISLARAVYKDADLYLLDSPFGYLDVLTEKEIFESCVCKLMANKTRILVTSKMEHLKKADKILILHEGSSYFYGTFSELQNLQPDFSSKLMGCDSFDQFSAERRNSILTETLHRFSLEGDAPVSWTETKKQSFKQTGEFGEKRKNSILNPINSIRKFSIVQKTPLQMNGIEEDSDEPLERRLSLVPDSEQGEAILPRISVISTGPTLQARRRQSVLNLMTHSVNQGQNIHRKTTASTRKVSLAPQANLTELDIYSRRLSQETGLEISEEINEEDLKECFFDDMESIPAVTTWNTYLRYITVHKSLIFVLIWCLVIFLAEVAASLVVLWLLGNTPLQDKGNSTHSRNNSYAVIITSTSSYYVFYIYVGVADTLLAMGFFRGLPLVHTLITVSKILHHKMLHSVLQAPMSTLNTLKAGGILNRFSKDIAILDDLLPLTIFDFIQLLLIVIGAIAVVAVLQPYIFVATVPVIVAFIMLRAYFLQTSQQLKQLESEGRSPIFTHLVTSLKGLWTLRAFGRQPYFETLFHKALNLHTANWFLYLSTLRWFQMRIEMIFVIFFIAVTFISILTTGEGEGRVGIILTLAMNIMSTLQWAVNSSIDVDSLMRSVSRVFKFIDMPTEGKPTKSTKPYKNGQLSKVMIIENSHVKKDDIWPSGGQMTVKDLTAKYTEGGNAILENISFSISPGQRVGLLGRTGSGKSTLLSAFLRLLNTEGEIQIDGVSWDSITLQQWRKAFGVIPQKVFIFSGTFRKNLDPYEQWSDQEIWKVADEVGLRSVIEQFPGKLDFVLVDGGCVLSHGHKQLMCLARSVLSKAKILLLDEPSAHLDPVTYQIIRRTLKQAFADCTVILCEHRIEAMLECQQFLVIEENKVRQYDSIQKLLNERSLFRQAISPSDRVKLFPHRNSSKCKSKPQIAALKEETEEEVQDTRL
# Experiment: hBE equivalent current (Ieq) assay, CFTR activity
# Format: cell-based
# Conditions: relative to a CFTR amplifier at 3 μM, ΔF508 homozygous hBE, 24 h treatment; for Activity 3 μM: compound at 3 μM; for Activity 10 μM: compound at 10 μM
# Protocol: Primary lung epithelial cells homozygous for the Cystic Fibrosis-causing ΔF508 mutation were differentiated for a minimum of 4 weeks in an air-liquid interface on Costar 24 well HTS filter plates prior to the equivalent current (Ieq) measurements. Cells were apically mucus-washed for 30 minutes 24 h prior to treatment with compounds. The basolateral media was removed and replaced with media containing the compound of interest diluted to its final concentration from DMSO stocks. Treated cells were incubated at 37° C. and 5% CO2 for 24 hours. At the end of the treatment period, the media was changed to the Ieq experimental solution for 2 hours before the experiment and plates are maintained in a CO2-free incubator during this period. The plates containing the cells were then placed in pre-warmed heating blocks at 36° C.±0.5 for 15 minutes before measurements are taken. The transepithelial voltage (VT) and conductance (GT) were measured using a custom 24 channel current clamp (TECC-24) with 24 well electrode manifold. The Ieq assay measurements were made following additions with standardized time periods:
# 1. The baseline VT and GT values were measured for approximately 20 minutes.
# 2. Benzamil was added to block ENaC for 15 minutes.
# 3. Forskolin plus VX-770 were added to maximally activate ΔF508-CFTR for 27 minutes.
# 4. Bumetanide was added to inhibit the NaK2Cl cotransporter and shut-off secretion of chloride.
# The activity data captured was the area under the curve (AUC) for the traces of the equivalent chloride current. The AUC was collected from the time of the forskolin/VX-770 addition until the inhibition by bumetanide addition. Correction in response to compound treatment was scored as the increase in the AUC for compound-treated samples over that of vehicle-treated samples.
# The results are shown below in Table 1. + indicates activity <150% of a CFTR amplifier with compound at concentration shown and amplifier at 3 μM; ++ indicates activity >150% of a CFTR amplifier with compound at concentration shown and amplifier at 3 μM.
Structure (SMILES),Activity 3 μM,Activity 10 μM
"COc1cccc(-c2ccc(=O)n(C(C)C(=O)Nc3cc(C(F)(F)F)cc(C(F)(F)F)c3)n2)c1 (centres unmarked) [Compound 41, N-(3,5-Bis(trifluoromethyl)phenyl)-2-(3-(3-methoxyphenyl)-6-oxopyridazin-1(6H)-yl)propanamide]",++ (activity >150% of a CFTR amplifier with compound at concentration shown and amplifier at 3 μM),++ (activity >150% of a CFTR amplifier with compound at concentration shown and amplifier at 3 μM)
"COc1cccc(-c2ccc(=O)n(C(C)C(=O)Nc3ccc(C(F)(F)F)cc3F)n2)c1 (centres unmarked) [Compound 42, N-(2-Fluoro-4-(trifluoromethyl)phenyl)-2-(3-(3-methoxyphenyl)-6-oxopyridazin-1(6H)-yl)propanamide]",++ (activity >150% of a CFTR amplifier with compound at concentration shown and amplifier at 3 μM),++ (activity >150% of a CFTR amplifier with compound at concentration shown and amplifier at 3 μM)
"COc1cccc(-c2ccc(=O)n(C(C)C(=O)Nc3ccc(C(F)(F)F)c(F)c3)n2)c1 (centres unmarked) [Compound 43, N-[3-Fluoro-4-(trifluoromethyl)phenyl]-2-[3-(3-methoxyphenyl)-6-oxo-1,6-dihydropyridazin-1-yl]propanamide]",++ (activity >150% of a CFTR amplifier with compound at concentration shown and amplifier at 3 μM),++ (activity >150% of a CFTR amplifier with compound at concentration shown and amplifier at 3 μM)
"COc1cccc(-c2ccc(=O)n(C(C)C(=O)Nc3ccc(C#N)cc3)n2)c1 (centres unmarked) [Compound 44, N-(4-Cyanophenyl)-2-(3-(3-methoxyphenyl)-6-oxopyridazin-1(6H)-yl)propanamide]",+ (activity <150% of a CFTR amplifier with compound at concentration shown and amplifier at 3 μM),+ (activity <150% of a CFTR amplifier with compound at concentration shown and amplifier at 3 μM)
"COc1cccc(-c2ccc(=O)n(C(C)C(=O)Nc3cccc(C#N)c3)n2)c1 (centres unmarked) [Compound 45, N-(3-Cyanophenyl)-2-(3-(3-methoxyphenyl)-6-oxopyridazin-1(6H)-yl)propanamide]",+ (activity <150% of a CFTR amplifier with compound at concentration shown and amplifier at 3 μM),+ (activity <150% of a CFTR amplifier with compound at concentration shown and amplifier at 3 μM)
"COc1cccc(-c2ccc(=O)n(C(C)C(=O)Nc3cc(Cl)cc(Cl)c3)n2)c1 (centres unmarked) [Compound 46, N-(3,5-Dichlorophenyl)-2-(3-(3-methoxyphenyl)-6-oxopyridazin-1(6H)-yl)propanamide]",++ (activity >150% of a CFTR amplifier with compound at concentration shown and amplifier at 3 μM),++ (activity >150% of a CFTR amplifier with compound at concentration shown and amplifier at 3 μM)
"COc1cccc(-c2ccc(=O)n(C(C)C(=O)Nc3ccc(C(F)(F)F)c(C(F)(F)F)c3)n2)c1 (centres unmarked) [Compound 47, N-[3,4-Bis(trifluoromethyl)phenyl]-2-[3-(3-methoxyphenyl)-6-oxo-1,6-dihydropyridazin-1-yl]propanamide]",++ (activity >150% of a CFTR amplifier with compound at concentration shown and amplifier at 3 μM),++ (activity >150% of a CFTR amplifier with compound at concentration shown and amplifier at 3 μM)
"CCOc1cccc(-c2ccc(=O)n(C(C)C(=O)Nc3ccc(C(F)(F)F)cc3)n2)c1 (centres unmarked) [Compound 48, 2-[3-(3-Ethoxyphenyl)-6-oxo-1,6-dihydropyridazin-1-yl]-N-[4-(trifluoromethyl)phenyl]propanamide]",++ (activity >150% of a CFTR amplifier with compound at concentration shown and amplifier at 3 μM),++ (activity >150% of a CFTR amplifier with compound at concentration shown and amplifier at 3 μM)
"CC(C)Oc1cccc(-c2ccc(=O)n(C(C)C(=O)Nc3ccc(C(F)(F)F)cc3)n2)c1 (centres unmarked) [Compound 49, 2-[6-Oxo-3-[3-(propan-2-yloxy)phenyl]-1,6-dihydropyridazin-1-yl]-N-[4-(trifluoromethyl)phenyl]propanamide]",++ (activity >150% of a CFTR amplifier with compound at concentration shown and amplifier at 3 μM),++ (activity >150% of a CFTR amplifier with compound at concentration shown and amplifier at 3 μM)
"CC(C(=O)Nc1ccc(C(F)(F)F)cc1)n1nc(-c2cccc(OCc3ccccc3)c2)ccc1=O (centres unmarked) [Compound 50, 2-[3-[3-(Benzyloxy)phenyl]-6-oxo-1,6-dihydropyridazin-1-yl]-N-[4-(trifluoromethyl)phenyl]propanamide]",++ (activity >150% of a CFTR amplifier with compound at concentration shown and amplifier at 3 μM),++ (activity >150% of a CFTR amplifier with compound at concentration shown and amplifier at 3 μM)
"CC(C(=O)Nc1ccc(C(F)(F)F)cc1)n1nc(-c2cccc(Oc3ccccc3)c2)ccc1=O (centres unmarked) [Compound 51, 2-[3-[3-(Phenoxy)phenyl]-6-oxo-1,6-dihydropyridazin-1-yl]-N-[4-(trifluoromethyl)phenyl]propanamide]",++ (activity >150% of a CFTR amplifier with compound at concentration shown and amplifier at 3 μM),++ (activity >150% of a CFTR amplifier with compound at concentration shown and amplifier at 3 μM)
"COc1ccc(F)c(-c2ccc(=O)n(C(C)C(=O)Nc3ccc(C(F)(F)F)cc3)n2)c1 (centres unmarked) [Compound 52, 2-[3-(2-Fluoro-5-methoxyphenyl)-6-oxo-1,6-dihydropyridazin-1-yl]-N-[4-(trifluoromethyl)phenyl]propanamide]",++ (activity >150% of a CFTR amplifier with compound at concentration shown and amplifier at 3 μM),++ (activity >150% of a CFTR amplifier with compound at concentration shown and amplifier at 3 μM)
"COc1cccc(-c2ccc(=O)n(C(Cc3ccccc3)C(=O)Nc3ccc(C(F)(F)F)cc3)n2)c1 (centres unmarked) [Compound 53, 2-(3-(3-Methoxyphenyl)-6-oxopyridazin-1(6H)-yl)-3-phenyl-N-(4-(trifluoromethyl)phenyl)propanamide]",–,+ (activity <150% of a CFTR amplifier with compound at concentration shown and amplifier at 3 μM)
"COc1cccc(-c2ccc(=O)n(C(C)(C(=O)Nc3ccc(C(F)(F)F)cc3)c3ccccc3)n2)c1 (centres unmarked) [Compound 54, 2-(3-(3-Methoxyphenyl)-6-oxopyridazin-1(6H)-yl)-2-phenyl-N-(4-(trifluoromethyl)phenyl)propanamide]",–,+ (activity <150% of a CFTR amplifier with compound at concentration shown and amplifier at 3 μM)
